Data from paper PMC4575644 (ACS chemical biology, 2015).

What was measured:
Format in all cases: cell-based
[1] = target: T1, N-acylethanolamine acid amidase (hNAAA) (Homo sapiens, UniProt Q02083); experiment: competitive ABPP against probe […] in intact NAAA-HEK293 cells
T1 sequence (Q02083 29-125): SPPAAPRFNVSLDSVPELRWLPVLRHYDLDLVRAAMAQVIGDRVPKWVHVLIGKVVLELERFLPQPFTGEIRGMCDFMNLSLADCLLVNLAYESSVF
T1 sequence (Q02083 126-359): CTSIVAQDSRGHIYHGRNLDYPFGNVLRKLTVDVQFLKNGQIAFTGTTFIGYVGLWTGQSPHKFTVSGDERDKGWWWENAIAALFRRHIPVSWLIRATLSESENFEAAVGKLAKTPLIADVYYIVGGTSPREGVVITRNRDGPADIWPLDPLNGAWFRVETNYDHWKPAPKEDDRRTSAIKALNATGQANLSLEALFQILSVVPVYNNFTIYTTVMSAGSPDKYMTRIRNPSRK

acid ceramidase (AC) = target: T2, acid ceramidase (AC) (Rattus norvegicus, UniProt Q6P7S1); experiment: enzyme inhibition IC50
T2 sequence (Q6P7S1 21-141): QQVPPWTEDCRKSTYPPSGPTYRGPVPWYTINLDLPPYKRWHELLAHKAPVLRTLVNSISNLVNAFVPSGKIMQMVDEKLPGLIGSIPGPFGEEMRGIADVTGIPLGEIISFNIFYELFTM
T2 sequence (Q6P7S1 142-394): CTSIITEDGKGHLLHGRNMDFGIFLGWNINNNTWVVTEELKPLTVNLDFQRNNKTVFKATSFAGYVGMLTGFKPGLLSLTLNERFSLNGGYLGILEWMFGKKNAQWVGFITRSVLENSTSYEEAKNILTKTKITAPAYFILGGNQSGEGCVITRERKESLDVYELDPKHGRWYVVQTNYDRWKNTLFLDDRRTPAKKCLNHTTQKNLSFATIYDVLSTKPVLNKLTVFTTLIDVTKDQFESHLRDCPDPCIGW

[2] = target: T3, N-acylethanolamine acid amidase (rNAAA) (Rattus norvegicus, UniProt Q5KTC7); experiment: enzyme inhibition IC50
T3 sequence (Q5KTC7 34-130): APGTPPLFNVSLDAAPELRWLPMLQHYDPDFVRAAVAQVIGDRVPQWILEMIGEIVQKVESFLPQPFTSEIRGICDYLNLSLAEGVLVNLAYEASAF
T3 sequence (Q5KTC7 131-362): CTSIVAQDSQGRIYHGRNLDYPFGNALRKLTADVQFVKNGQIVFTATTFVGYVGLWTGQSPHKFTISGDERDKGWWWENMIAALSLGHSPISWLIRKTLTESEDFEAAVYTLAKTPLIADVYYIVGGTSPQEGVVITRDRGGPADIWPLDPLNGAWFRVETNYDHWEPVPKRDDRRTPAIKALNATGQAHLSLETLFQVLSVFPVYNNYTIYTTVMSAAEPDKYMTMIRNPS

IC50 (acid ceramidase (AC)) [nM] | IC50 [2] [nM] | Structure (SMILES) | competitive ABPP against probe 1 in intact NAAA-HEK293 cells (40 μM) [1]
 |  | C[C@@H]1OC(=O)[C@@H]1NC(=O)OCCCCCc1ccccc1 [ARN077, 5-phenylpentyl N-[(2S,3R)-2-methyl-4-oxo-oxetan-3-yl]carbamate] | In either case, a decrease in signal intensity was observed, but a more pronounced masking of NAAA was noted
1200 | 13 | C#CCCCCCCCCCOC(=O)N[C@H]1CNC1=O [compound 1, undec-10-ynyl N-[(3S)-2-oxoazetidin-3-yl]carbamate] | 
